The supplement of paper PMC12463676, “Small-molecule dissolution of stress granules by redox modulation benefits ALS models” (Nature Chemical Biology, 2025)

What follows are targets tested with NC(=O)CCCCC1CCSS1 [lipoamide] (assay: thermal stability z-score vs DMSO; higher = more thermally stabilized by treatment). Details: HeLa; lipoamide concentration 100 µM; arsenate co-treatment: 1 mM arsenate 1 h.
Method: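 Cellular thermal proteome profiling in HeLa cells. Cells were treated with 100 µM lipoamide for 1 h, with or without 1 mM arsenate for a further 1 h, then heated to ten temperatures (37-66.3 °C), and soluble protein was quantified by TMT mass spectrometry relative to 0.1% DMSO controls. The thermal stability score (sum of log2 fold changes minus the abundance score) was transformed to a z-score; mean of n = 3 experiments.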
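Also: each temperature applied for 3 min, abundance score taken as mean log2 fold change at the two lowest temperatures, z-score obtained by mean subtraction and division by SD.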

Chain of UniProt P84095 (P84095 whole entry): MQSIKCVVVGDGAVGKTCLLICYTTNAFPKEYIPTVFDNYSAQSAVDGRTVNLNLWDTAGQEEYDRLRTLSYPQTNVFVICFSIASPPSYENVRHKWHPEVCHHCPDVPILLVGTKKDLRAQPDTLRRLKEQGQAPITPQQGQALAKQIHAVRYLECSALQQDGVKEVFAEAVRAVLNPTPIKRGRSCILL
Chain of UniProt P48637 (P48637 whole entry): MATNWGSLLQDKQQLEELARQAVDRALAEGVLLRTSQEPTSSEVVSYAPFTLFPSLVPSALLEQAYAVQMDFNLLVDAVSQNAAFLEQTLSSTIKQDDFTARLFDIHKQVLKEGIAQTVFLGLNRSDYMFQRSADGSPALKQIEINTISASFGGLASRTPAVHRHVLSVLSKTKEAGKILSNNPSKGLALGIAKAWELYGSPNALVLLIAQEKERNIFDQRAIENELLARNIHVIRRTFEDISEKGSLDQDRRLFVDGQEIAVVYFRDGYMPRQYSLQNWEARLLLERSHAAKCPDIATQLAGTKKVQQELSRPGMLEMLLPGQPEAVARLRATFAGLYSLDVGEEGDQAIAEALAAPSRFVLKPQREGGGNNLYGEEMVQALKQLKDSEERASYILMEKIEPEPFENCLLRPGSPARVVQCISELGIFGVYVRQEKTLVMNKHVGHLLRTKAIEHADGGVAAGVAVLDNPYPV
Chain of UniProt Q32P44 (Q32P44 whole entry): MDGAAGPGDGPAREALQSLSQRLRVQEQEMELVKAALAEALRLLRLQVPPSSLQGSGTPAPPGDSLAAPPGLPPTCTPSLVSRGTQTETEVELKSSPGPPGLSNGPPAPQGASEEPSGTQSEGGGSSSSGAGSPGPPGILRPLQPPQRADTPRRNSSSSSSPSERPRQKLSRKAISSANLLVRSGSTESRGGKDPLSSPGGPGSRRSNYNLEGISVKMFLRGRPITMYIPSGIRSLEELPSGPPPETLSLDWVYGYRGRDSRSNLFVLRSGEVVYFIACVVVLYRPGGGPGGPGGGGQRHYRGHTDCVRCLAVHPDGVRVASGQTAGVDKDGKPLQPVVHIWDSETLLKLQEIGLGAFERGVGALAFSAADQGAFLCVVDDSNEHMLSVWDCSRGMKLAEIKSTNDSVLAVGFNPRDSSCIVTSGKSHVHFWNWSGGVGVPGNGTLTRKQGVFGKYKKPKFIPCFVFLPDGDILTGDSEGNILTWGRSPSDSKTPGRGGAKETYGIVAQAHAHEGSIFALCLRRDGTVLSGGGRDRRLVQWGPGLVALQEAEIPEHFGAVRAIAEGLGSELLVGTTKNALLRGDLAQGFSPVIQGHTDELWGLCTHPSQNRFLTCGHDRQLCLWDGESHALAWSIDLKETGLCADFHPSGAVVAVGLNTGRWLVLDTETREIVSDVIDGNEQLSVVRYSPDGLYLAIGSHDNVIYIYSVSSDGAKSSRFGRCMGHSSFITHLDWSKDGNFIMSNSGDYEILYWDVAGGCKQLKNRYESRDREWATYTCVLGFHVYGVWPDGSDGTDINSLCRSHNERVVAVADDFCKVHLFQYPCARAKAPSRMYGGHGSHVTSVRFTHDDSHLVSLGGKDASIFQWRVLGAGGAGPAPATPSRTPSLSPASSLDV
Chain of UniProt Q9BTF0 (Q9BTF0 whole entry): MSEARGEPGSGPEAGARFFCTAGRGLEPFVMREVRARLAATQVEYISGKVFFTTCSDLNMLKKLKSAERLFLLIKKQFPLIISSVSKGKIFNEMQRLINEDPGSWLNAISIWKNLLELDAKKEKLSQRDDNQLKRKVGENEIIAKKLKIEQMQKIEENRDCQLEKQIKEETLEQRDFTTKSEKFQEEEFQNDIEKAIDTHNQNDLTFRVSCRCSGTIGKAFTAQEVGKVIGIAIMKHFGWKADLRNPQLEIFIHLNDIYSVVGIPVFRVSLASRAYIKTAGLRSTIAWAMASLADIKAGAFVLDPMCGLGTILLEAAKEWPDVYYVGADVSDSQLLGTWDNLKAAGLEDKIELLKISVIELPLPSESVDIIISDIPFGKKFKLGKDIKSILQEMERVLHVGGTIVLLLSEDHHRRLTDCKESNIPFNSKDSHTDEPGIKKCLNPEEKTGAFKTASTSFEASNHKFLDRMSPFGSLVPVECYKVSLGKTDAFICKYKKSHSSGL
Chain of UniProt Q12846 (Q12846 whole entry): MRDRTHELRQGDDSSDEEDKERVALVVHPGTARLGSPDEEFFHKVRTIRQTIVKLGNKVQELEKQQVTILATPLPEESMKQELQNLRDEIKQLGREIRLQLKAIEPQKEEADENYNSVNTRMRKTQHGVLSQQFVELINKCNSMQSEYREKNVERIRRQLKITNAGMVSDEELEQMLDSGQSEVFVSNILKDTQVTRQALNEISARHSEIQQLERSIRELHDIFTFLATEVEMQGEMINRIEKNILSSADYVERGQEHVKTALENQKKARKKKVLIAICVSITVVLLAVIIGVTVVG
Chain of UniProt Q7L576 (Q7L576 whole entry): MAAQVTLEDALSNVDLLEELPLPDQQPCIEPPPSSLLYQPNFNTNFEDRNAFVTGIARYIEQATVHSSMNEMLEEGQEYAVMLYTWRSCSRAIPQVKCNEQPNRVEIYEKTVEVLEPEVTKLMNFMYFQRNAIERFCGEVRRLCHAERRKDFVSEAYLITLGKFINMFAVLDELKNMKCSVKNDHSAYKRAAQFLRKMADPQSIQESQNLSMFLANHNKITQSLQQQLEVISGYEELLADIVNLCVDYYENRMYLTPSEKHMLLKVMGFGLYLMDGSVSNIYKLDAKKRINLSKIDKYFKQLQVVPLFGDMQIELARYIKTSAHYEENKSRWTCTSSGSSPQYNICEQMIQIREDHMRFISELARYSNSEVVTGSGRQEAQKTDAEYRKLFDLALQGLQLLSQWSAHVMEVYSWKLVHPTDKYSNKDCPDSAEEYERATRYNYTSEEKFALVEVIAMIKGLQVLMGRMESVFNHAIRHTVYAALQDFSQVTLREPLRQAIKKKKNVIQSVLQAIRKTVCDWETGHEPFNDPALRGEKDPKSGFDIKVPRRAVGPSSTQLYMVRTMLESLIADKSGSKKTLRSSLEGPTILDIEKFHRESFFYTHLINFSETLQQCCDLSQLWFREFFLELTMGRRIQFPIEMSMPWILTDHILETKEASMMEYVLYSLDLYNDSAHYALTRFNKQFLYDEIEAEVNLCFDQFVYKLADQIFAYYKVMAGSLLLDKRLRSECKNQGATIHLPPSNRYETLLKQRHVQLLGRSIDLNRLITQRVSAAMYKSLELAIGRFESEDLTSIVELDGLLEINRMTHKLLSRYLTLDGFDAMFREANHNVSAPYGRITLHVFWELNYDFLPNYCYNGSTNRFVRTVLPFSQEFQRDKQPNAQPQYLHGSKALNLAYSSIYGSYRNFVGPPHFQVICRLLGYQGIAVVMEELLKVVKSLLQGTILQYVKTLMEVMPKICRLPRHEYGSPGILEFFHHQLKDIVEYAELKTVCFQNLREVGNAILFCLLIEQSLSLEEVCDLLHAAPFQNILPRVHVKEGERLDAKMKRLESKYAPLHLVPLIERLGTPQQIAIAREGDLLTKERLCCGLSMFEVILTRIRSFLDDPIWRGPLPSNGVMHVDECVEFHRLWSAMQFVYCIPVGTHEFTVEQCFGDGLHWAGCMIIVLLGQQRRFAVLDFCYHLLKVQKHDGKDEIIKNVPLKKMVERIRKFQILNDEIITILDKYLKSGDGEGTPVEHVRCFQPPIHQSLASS
Chain of UniProt Q9H6E5 (Q9H6E5 whole entry): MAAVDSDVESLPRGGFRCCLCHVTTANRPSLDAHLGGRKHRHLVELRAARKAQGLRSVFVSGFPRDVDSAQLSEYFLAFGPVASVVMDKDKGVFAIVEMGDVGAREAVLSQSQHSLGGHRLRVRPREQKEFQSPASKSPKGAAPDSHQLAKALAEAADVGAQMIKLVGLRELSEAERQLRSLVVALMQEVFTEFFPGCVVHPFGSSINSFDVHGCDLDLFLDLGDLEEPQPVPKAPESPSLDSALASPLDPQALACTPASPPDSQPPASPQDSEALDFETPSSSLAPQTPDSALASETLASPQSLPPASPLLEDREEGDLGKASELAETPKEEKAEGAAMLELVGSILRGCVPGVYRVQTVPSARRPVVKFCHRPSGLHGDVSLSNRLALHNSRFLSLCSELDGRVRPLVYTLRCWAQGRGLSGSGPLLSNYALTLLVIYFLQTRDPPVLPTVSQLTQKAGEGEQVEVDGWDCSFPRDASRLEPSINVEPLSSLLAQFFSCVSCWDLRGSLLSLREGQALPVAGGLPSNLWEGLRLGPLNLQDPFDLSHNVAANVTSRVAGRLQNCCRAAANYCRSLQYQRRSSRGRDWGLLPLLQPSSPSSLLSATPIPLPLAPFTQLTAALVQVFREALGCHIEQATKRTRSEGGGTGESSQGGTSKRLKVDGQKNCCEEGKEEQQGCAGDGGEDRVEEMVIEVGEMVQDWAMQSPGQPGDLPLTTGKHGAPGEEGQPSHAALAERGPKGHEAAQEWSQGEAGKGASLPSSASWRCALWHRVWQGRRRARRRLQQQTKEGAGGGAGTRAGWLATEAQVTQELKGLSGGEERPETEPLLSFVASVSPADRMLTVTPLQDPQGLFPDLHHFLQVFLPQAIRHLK
Chain of UniProt P15559 (P15559 whole entry): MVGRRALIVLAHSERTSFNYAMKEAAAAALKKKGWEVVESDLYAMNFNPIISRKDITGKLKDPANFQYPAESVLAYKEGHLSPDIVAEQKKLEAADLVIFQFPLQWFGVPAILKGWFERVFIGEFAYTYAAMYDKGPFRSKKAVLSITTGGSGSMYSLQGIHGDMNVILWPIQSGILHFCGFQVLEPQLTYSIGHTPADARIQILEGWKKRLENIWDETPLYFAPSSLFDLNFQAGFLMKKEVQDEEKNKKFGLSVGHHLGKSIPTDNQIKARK
Chain of UniProt Q56VL3 (Q56VL3 whole entry): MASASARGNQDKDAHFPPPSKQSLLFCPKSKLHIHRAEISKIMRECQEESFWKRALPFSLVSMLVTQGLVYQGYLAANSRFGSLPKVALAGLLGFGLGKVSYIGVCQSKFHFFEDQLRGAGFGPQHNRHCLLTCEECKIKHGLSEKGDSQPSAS

Target | thermal stability z-score
EWSR1 (UniProt Q01844) | 0.0495
TTC17 (UniProt Q96AE7) | -0.85
TRIM56 (UniProt Q9BRZ2) | -0.0694
CYFIP1 (UniProt Q7L576) | -0.422
RAP2B (UniProt P61225) | 0.92
NQO1 (UniProt P15559) | 0.825
POP1 (UniProt Q99575) | -0.557
PPIE (UniProt Q9UNP9) | 0.246
N4BP1 (UniProt O75113) | 0.103
XPO1 (UniProt O14980) | 0.211
RPLP0 (UniProt P05388) | 1.08
TUT1 (UniProt Q9H6E5) | 0.0998
PSME2 (UniProt Q9UL46) | 0.493
STX4 (UniProt Q12846) | 0.741
OCIAD2 (UniProt Q56VL3) | 0.194
TMEM223 (UniProt A0PJW6) | -0.653
GSS (UniProt P48637) | -0.2
HIP1 (UniProt O00291) | 0.0784

Target | thermal stability z-score
TMED9 (UniProt Q9BVK6) | -1.24
RHOG (UniProt P84095) | 0.489
PLS3 (UniProt P13797) | 0.368
DLAT (UniProt P10515) | -2.72
SUCLG2 (UniProt Q96I99) | 0.0359
HMGN5 (UniProt P82970) | -0.141
DHRS1 (UniProt Q96LJ7) | -0.121
NUDT4 (UniProt Q9NZJ9) | -0.239
THUMPD2 (UniProt Q9BTF0) | -0.2
AHCYL2 (UniProt Q96HN2) | 0.295
LACTB2 (UniProt Q53H82) | -0.112
FBXO45 (UniProt P0C2W1) | 0.369
MTX2 (UniProt O75431) | -0.388
SEC62 (UniProt Q99442) | 0.39
SLC25A6 (UniProt P12236) | 0.809
MGAT2 (UniProt Q10469) | -0.206
EML3 (UniProt Q32P44) | 0.0786
MAMLD1 (UniProt Q13495) | 0.0249

Same assay, conditions: HeLa; lipoamide concentration 100 µM; arsenate co-treatment: none

Target | thermal stability z-score
LAMB2 (UniProt P55268) | -1.75
PSMB4 (UniProt P28070) | 0.72
EIF3M (UniProt Q7L2H7) | -0.372
DYNLRB1 (UniProt Q9NP97) | 0.743
NUFIP2 (UniProt Q7Z417) | 0.487
PPM1L (UniProt Q5SGD2) | -0.095
RRM2B (UniProt Q7LG56) | 0.415
SMG5 (UniProt Q9UPR3) | 0.0814
SLC19A1 (UniProt P41440) | -0.505
GPN1 (UniProt Q9HCN4) | -0.00238
VPS16 (UniProt Q9H269) | 0.0437
THG1L (UniProt Q9NWX6) | 0.85
TMEM131 (UniProt Q92545) | 0.061
PHF14 (UniProt O94880) | 0.314
PLXNA1 (UniProt Q9UIW2) | -0.385
DPH5 (UniProt Q9H2P9) | 1.89
H1FX (UniProt Q92522) | -0.893
DXO (UniProt O77932) | 0.216
FERMT2 (UniProt Q96AC1) | -0.153
WDR77 (UniProt Q9BQA1) | 0.78
METTL21A (UniProt Q8WXB1) | -0.307
TRAPPC6B (UniProt Q86SZ2) | -1.19
HFE (UniProt Q30201) | 0.389
PARP12 (UniProt Q9H0J9) | -0.00139

Target | thermal stability z-score
LLPH (UniProt Q9BRT6) | -1.15
TTK (UniProt P33981) | -0.0774
DNAJC3 (UniProt Q13217) | -3.61
IRF2BPL (UniProt Q9H1B7) | 0.157
WWTR1 (UniProt Q9GZV5) | -0.0566
CASP1 (UniProt P29466) | -0.846
MAD1L1 (UniProt Q9Y6D9) | 0.887
HDAC7 (UniProt Q8WUI4) | -0.253
KATNAL1 (UniProt Q9BW62) | -0.886
NAGK (UniProt Q9UJ70) | -0.796
PDIA3 (UniProt P30101) | -2.98
EWSR1 (UniProt Q01844) | 0.235
TTC17 (UniProt Q96AE7) | -0.317
TRIM56 (UniProt Q9BRZ2) | -0.839
CYFIP1 (UniProt Q7L576) | -0.325
RAP2B (UniProt P61225) | 0.134
NQO1 (UniProt P15559) | 0.331
POP1 (UniProt Q99575) | -0.523
PPIE (UniProt Q9UNP9) | 0.0366
N4BP1 (UniProt O75113) | 0.0755
XPO1 (UniProt O14980) | 0.4
RPLP0 (UniProt P05388) | 0.341
TUT1 (UniProt Q9H6E5) | -0.00913
PSME2 (UniProt Q9UL46) | 0.0915

Target | thermal stability z-score
STX4 (UniProt Q12846) | 0.546
OCIAD2 (UniProt Q56VL3) | 0.205
TMEM223 (UniProt A0PJW6) | 0.466
GSS (UniProt P48637) | -0.141
HIP1 (UniProt O00291) | 0.0537
TMED9 (UniProt Q9BVK6) | -1.5
RHOG (UniProt P84095) | 0.491
PLS3 (UniProt P13797) | 0.603
DLAT (UniProt P10515) | -0.583
SUCLG2 (UniProt Q96I99) | 0.172
HMGN5 (UniProt P82970) | -0.134
DHRS1 (UniProt Q96LJ7) | 0.743
NUDT4 (UniProt Q9NZJ9) | -0.659
THUMPD2 (UniProt Q9BTF0) | -0.425
AHCYL2 (UniProt Q96HN2) | 0.547
LACTB2 (UniProt Q53H82) | -0.0753
FBXO45 (UniProt P0C2W1) | 0.292
MTX2 (UniProt O75431) | -0.267
SEC62 (UniProt Q99442) | 0.266
SLC25A6 (UniProt P12236) | 0.762
MGAT2 (UniProt Q10469) | -0.0594
EML3 (UniProt Q32P44) | -0.13
MAMLD1 (UniProt Q13495) | 0.146
